From patent publication US20050101595A1, “N-containing cycloalkyl-substituted amino-thiazole derivatives and pharmaceutical compositions for inhibiting cell proliferation and methods for their use” (PFIZER INC., priority 2003, published 2005) come the findings set out here.

Test [1] addresses CDK2/Cyclin A (Homo sapiens, UniProt P24941). Put plainly: Inhibition of CDK2/Cyclin A Retinoblastoma Kinase Activity. Particulars: for pKi: apparent Ki, CDK2/proteolyzed cyclin A, Rb fragment substrate, 25 μM ATP. The test is classed as biochemical. In outline:
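CDK2 (10 or 19 nM), insect-cell expressed, gel-filtration purified with truncated cyclin A; Rb fragment substrate; 25 μM ATP; 10 mM HEPES pH 7.4, 10 mM MgCl2; 30° C, 60 or 75 min; EDTA stop; phosphocellulose/nitrocellulose capture, phosphorimager. % inhibition vs DMSO control, no-enzyme background subtracted.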

The subject of test [2] is HCT-116 cell line. Put plainly: Inhibition of cell growth, tetrazolium salt (MTT) assay. It is filed as cell-based. Particulars: for HCT-116 % Inhibition at 0.25 μM: 0.25 μM compound; for pIC50: Homo sapiens, HCT-116, 120 h, MTT, three to five days. Put shortly: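 Growth inhibition is scored relative to cells receiving only 0.5% (v/v) DMSO. Plated cells rest 4 h, then take compound for three to five days at 37° C; MTT reduction to formazan is read at 540 nm.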

Test [3] addresses human CDK4 and genetically truncated (1-264) cyclin D3 (Homo sapiens, UniProt P11802). Put plainly: Inhibition of CDK4/Cyclin D Retinoblastoma Kinase Activity. It is filed as biochemical. Particulars: for pKi: apparent Ki, CDK4/truncated cyclin D3, Rb fragment substrate, 25 μM ATP. In outline: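 The enzyme complex (5 nM), expressed in co-infected insect cells, was incubated with recombinant Rb fragment, 25 μM radiolabelled ATP and 2% DMSO at 30 °C. Reactions were stopped with EDTA after 20 minutes, or 60 minutes for tight-binding inhibitors. Apparent Ki values came from competitive inhibition fits.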

[4] abbreviates: 0.1 μM compound, HCT-116, Table 3.
The mark [5] stands for this setting: 0.1 μM compound, HCT-116, Table 4.
The mark [6] stands for this setting: first HCT-116 column (c4), read-out: HCT-116 IC50.
Setting [7] is: second HCT-116 column (c5), read-out: HCT-116 IC50.

pIC50, pKi: −log10 of the molar value. Structures can show the parent of a compound that is named as a salt. Where two headings read alike, the source gives them in different places. A value given as a limit tells only on which side of the number the result lay.

human CDK4 and genetically truncated (1-264) cyclin D3, sequence (P11802 whole entry, the tested form may be a part): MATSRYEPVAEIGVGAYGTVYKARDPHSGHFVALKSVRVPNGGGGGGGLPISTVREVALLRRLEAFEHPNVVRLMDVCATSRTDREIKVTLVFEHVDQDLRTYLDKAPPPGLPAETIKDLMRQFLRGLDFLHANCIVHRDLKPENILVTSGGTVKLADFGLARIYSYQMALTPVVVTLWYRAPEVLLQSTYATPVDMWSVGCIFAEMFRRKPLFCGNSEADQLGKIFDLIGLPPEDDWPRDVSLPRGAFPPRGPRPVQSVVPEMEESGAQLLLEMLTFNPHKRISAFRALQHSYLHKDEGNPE
human CDK4 and genetically truncated (1-264) cyclin D3, sequence (P30281 1-264 partner): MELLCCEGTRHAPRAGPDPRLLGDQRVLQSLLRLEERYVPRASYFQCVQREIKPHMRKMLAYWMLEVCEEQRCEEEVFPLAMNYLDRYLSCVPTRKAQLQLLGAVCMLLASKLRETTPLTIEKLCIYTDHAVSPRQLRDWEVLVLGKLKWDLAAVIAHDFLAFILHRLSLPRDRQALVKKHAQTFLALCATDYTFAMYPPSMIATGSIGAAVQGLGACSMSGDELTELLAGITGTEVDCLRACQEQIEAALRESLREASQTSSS

For `CN(C)S(=O)(=O)N1CCC(Nc2nc(N)c(C(=O)c3c(F)cccc3F)s2)CC1` [Example P7], the “CDK2 % Inhibition at 0.03 μM” value in test [1] (0.03 μM compound, Table 3) worked out at 49%. For the same compound, the “HCT-116 % Inhibition at 0.1 μM” value in test [2] (setting [4]) stood at 25%. In addition, the “HCT-116 % Inhibition at 0.25 μM” value in test [2] (HCT-116, Table 3) amounted to 23%. Besides, in test [3] (0.03 μM compound, Table 3), the “CDK4 % Inhibition at 0.03 μM” value is recorded as 47%.
`N#Cc1ccc(C(=O)N2CCC(Nc3nc(N)c(C(=O)c4c(F)cccc4F)s3)CC2)cc1` [Example Q60]: in test [1] (0.03 μM compound, Table 4), the “CDK2 % Inhibition at 0.03 μM” value is 37%. Besides, in test [2] (setting [5]), the “HCT-116 % Inhibition at 0.1 μM” value is recorded as 0%. For the same compound, the “HCT-116 % Inhibition at 0.25 μM” value in test [2] (HCT-116, Table 4) is reported as 37%. For the same compound, the “CDK4 % Inhibition at 0.03 μM” value in test [3] (0.03 μM compound, Table 4) amounted to 67%.
One may read the pKi as the negative decadic logarithm of the Ki, by convention in mol/L. The term pIC50 denotes the IC50 on a negative log10 scale, so that one unit is a factor of ten. On to `CN(C)CCCc1ccc(S(=O)(=O)N2CCC(Nc3nc(N)c(C(=O)c4c(F)cccc4F)s3)CC2)cc1` [Example I10, 1-(4-Amino-2-{1-[4-(3-dimethylamino-propyl)-benzenesulfonyl]-piperidin-4-ylamino}-thiazol-5-yl)-1-(2,6-difluoro-phenyl)-methanone D-Glucuronic Acid Salt], for which the values for the pKi in test [1] and in test [3] were 8.92 and 9.17, respectively. Further, the negative-log IC50 (pIC50) in test [2] (setting [6]) was 6.70; in test [2] (setting [7]) it was 5.72.
For `N#Cc1ccc(S(=O)(=O)N2CCC(Nc3nc(N)c(C(=O)c4c(F)cccc4F)s3)CC2)cc1` [Example P47], the “CDK2 % Inhibition at 0.03 μM” value in test [1] (0.03 μM compound, Table 3) is listed as 81%. In addition, in test [2] (setting [4]), the “HCT-116 % Inhibition at 0.1 μM” value was 0%. Also, in test [2] (HCT-116, Table 3), the “HCT-116 % Inhibition at 0.25 μM” value worked out at 26%. In addition, in test [3] (0.03 μM compound, Table 3), the “CDK4 % Inhibition at 0.03 μM” value is 82%.
For `Cn1cncc1C(=O)N1CCC(Nc2nc(N)c(C(=O)c3c(F)cccc3F)s2)CC1` [Example C15, 1-(4-Amino-2-{1-[1-(3-methyl-3H-imidazol-4-yl)-methanoyl]-piperidin-4-ylamino}-thiazol-5-y)-1-(2,6-difluoro-phenyl)-methanone], the negative-log Ki (pKi) in test [1] is 6.82; in test [3], 7.29. In addition, the pIC50 in test [2] (setting [6]) and in test [2] (setting [7]) was < 5.30 in each case.
In the case of `Nc1nc(NC2CCN(S(=O)(=O)CCNC3CCS(=O)(=O)C3)CC2)sc1C(=O)c1c(F)cccc1F` (stereo not drawn) [Example K31, (4-Amino-2-{1-[2-(1,1-dioxo-tetrahydro-1-lamda-6-thiophen-3-ylamino)-ethanesulfonyl]-piperidin-4-ylamino}-thiazol-5-yl)-(2,6-difluoro-phenyl)-methanone Trifluoroacetic Acid Salt.], the negative logarithm of the Ki (pKi) is 8.26 in test [1] and 8.37 in test [3]. Also, the pIC50 in test [2] (setting [6]) and in test [2] (setting [7]) was < 5.30 in each case.
In the case of `Nc1nc(NC2CCN(S(=O)(=O)c3ccc(NCCO)nc3)CC2)sc1C(=O)c1c(F)cccc1F` [Example G3, 1-(4-Amino-2{1-[6-(2-hydroxy-ethylamino)-pyridine-3-sulfonyl]-piperidin-4-ylamino}-thiazol-5-yl)-1-(2,6-difluoro-phenyl)-methanone], the negative logarithm of the Ki (pKi) in test [1] is > 9.00; in test [3], 8.92. Besides, the results for the negative-log IC50 (pIC50) in test [2] (setting [6]) and in test [2] (setting [7]) were 5.77 and < 5.30, respectively.
The matching figures for `Nc1nc(NC2CCN(S(=O)(=O)c3ccc(CCN4CCC[C@H]4CO)nc3)CC2)sc1C(=O)c1c(F)cccc1F` [Example N9, [4-Amino-2-(1-{6-[2-(2S-hydroxymethyl-pyrrolidin-1-yl)-ethyl]-pyridine-3-sulfonyl}-piperidin-4-ylamino)-thiazol-5-yl]-(2,6-difluoro-phenyl)-methanone Hydrochloride Salt.]: 9.10, 9.59, 7.15 and 6.15.
On to `CN(C(=O)N1CCC(Nc2nc(N)c(C(=O)c3c(F)cccc3F)s2)CC1)c1ccccc1` [Example Q1], for which the “CDK2 % Inhibition at 0.03 μM” value in test [1] (0.03 μM compound, Table 4) is −7%. In addition, in test [2] (setting [5]), the “HCT-116 % Inhibition at 0.1 μM” value turned out to be 0%. Besides, the “HCT-116 % Inhibition at 0.25 μM” value in test [2] (HCT-116, Table 4) came out at 38%. Also, in test [3] (0.03 μM compound, Table 4), the “CDK4 % Inhibition at 0.03 μM” value stood at 31%.
Consider `CN1CCCC1CCSc1ccc(S(=O)(=O)N2CCC(Nc3nc(N)c(C(=O)c4c(F)cccc4F)s3)CC2)cn1` (stereo not drawn) [Example L6, 1-[4-Amino-2-(1-{6-[2-(1-methyl-pyrrolidin-2-yl)-ethylsulfanyl]-pyridine-3-sulfonyl}-piperidin-4-ylamino)-thiazol-5-yl]-1-(2,6-difluoro-phenyl)-methanone Dihydrochloride.], for which the values for the pKi in test [1] and in test [3] were 8.82 and 9.02, respectively. For the same compound, the values for the pIC50 in test [2] (setting [6]) and in test [2] (setting [7]) were 7.12 and 6.52, respectively.
Regarding `Nc1nc(NC2CCN(C(=O)Oc3ccc(Cl)cc3)CC2)sc1C(=O)c1c(F)cccc1F` [Example C3, 4-[4-Amino-5-(2,6-difluoro-benzoyl)-thiazol-2-ylamino]-piperidine-1-carboxylic Acid 4-Chloro-phenyl Ester], the negative-log Ki (pKi) was 7.77 in test [1] and 8.43 in test [3]. The negative logarithm of the IC50 (pIC50) in test [2] (read-out: HCT-116 IC50, first HCT-116 column (c4)) was 6.48; in test [2] (read-out: HCT-116 IC50, second HCT-116 column (c5)), 5.92.
Consider `CC(=O)Nc1ccc(S(=O)(=O)N2CCC(Nc3nc(N)c(C(=O)c4c(F)cccc4F)s3)CC2)cc1` [Example P17], for which, in test [1] (0.03 μM compound, Table 3), the “CDK2 % Inhibition at 0.03 μM” value was found to be 77%. In addition, the “HCT-116 % Inhibition at 0.1 μM” value in test [2] (setting [4]) was determined as 14%. Also, the “HCT-116 % Inhibition at 0.25 μM” value in test [2] (HCT-116, Table 3) was 36%. The “CDK4 % Inhibition at 0.03 μM” value in test [3] (0.03 μM compound, Table 3) is recorded as 78%.
On to `Cn1cnc(S(=O)(=O)N2CCC(Nc3nc(N)c(C(=O)c4c(F)cccc4F)s3)CC2)c1` [Example F2, 1-{4-Amino-2-[1-(i-methyl-1H-imidazole-4-sulfonyl)-piperidin-4-ylamino]-thiazol-5-yl}-1-(2,6-difluoro-phenyl)-methanone], for which the negative-log Ki (pKi) in test [1] was > 8.30; in test [3], 8.72. Moreover, the negative-log IC50 (pIC50) is 5.89 in test [2] (setting [6]) and 5.40 in test [2] (setting [7]).
On the same counts, the results for `Nc1nc(NC2CCN(S(=O)(=O)CCCN3CCC3)CC2)sc1C(=O)c1c(F)cccc1F` [Example K19, 1-{4-Amino-2-[1-(3-azetidin-1-yl-propane-1-sulfonyl)-piperidin-4-ylamino]-thiazol-5-yl}-1-(2,6-difluoro-phenyl)-methanone.] are 8.89, 8.70, 6.09 and < 5.30.
In the case of `Cc1noc(C)c1S(=O)(=O)N1CCC(Nc2nc(N)c(C(=O)c3c(F)cccc3F)s2)CC1` [Example F1], the pKi was 7.92 in test [1] and 7.85 in test [3]. Besides, the pIC50 is 5.85 in test [2] (setting [6]) and 5.35 in test [2] (setting [7]).
On to `CS(=O)(=O)c1csc(C(=O)N2CCC(Nc3nc(N)c(C(=O)c4c(F)cccc4F)s3)CC2)c1Cl` [Example R72], for which the “CDK2 % Inhibition at 0.03 μM” value in test [1] (at 0.03 μM) worked out at 57%. Moreover, in test [2] (HCT-116 cells, at 0.1 μM), the “HCT-116 % Inhibition at 0.1 μM” value stood at 6%. Further, in test [2] (HCT-116 cells, at 0.25 μM), the “HCT-116 5 Inhibition at 0.25 μM” value was determined as 43. In addition, the “CDK4 % Inhibition at 0.03 μM” value in test [3] (at 0.03 μM) came to 59%.
With `Nc1nc(NC2CCN(C(=O)COc3ccccc3)CC2)sc1C(=O)c1c(F)cccc1F` [Example Q41], the “CDK2 % Inhibition at 0.03 μM” value in test [1] (0.03 μM compound, Table 4) was found to be 24%. Further, the “HCT-116 % Inhibition at 0.1 μM” value in test [2] (setting [5]) is 3%. In addition, in test [2] (HCT-116, Table 4), the “HCT-116 % Inhibition at 0.25 μM” value worked out at 15%. In test [3] (0.03 μM compound, Table 4), the “CDK4 % Inhibition at 0.03 μM” value was 36%.
For the compound `Nc1nc(NC2CCN(C(=O)Nc3ccccc3Cl)CC2)sc1C(=O)c1c(F)cccc1F` [Example O6], the “CDK2 % Inhibition At 0.03 μM” value in test [1] (0.03 μM compound, Table 2) was 36%. Further, the “HCT-116 % Inhibition at 0.25 μM” value in test [2] (HCT-116, Table 2) is on record as 12%. The “CDK4 % Inhibition at 0.03 μM” value in test [3] (0.03 μM compound, Table 2) is listed as 10%.
For the compound `CN(CCO)c1ccc(S(=O)(=O)N2CCC(Nc3nc(N)c(C(=O)c4c(F)cccc4F)s3)CC2)cn1` [Example G10], the pKi was > 9.00 in test [1] and 8.92 in test [3]. For the same compound, the results for the pIC50 in test [2] (setting [6]) and in test [2] (setting [7]) were 6.17 and < 5.30, respectively.
The matching figures for `CN1CCN(c2ncc(S(=O)(=O)N3CCC(Nc4nc(N)c(C(=O)c5c(F)cccc5F)s4)CC3)cn2)CC1` [Example G34, (4-Amino-2-{1-[2-(4-methyl-piperazin-1-yl)-pyrimindine-5-sulfonyl]-piperidin-4-ylamino}-thiazol-5-yl)-(2,6-difluoro-phenyl)-methanone Hydrochloride Salt]: 9.09, 9.24, 7.40 and 6.60.
Turning to `COc1cc(OC)cc(C(=O)N2CCC(Nc3nc(N)c(C(=O)c4c(F)cccc4F)s3)CC2)c1` [Example Q23], the “CDK2 % Inhibition at 0.03 μM” value in test [1] (0.03 μM compound, Table 4) is listed as 20%. In addition, in test [2] (setting [5]), the “HCT-116 % Inhibition at 0.1 μM” value was determined as 10%. In addition, the “HCT-116 % Inhibition at 0.25 μM” value in test [2] (HCT-116, Table 4) was found to be 42%. Also, the “CDK4 % Inhibition at 0.03 μM” value in test [3] (0.03 μM compound, Table 4) came to 56%.
Regarding `Nc1nc(NC2CCN(S(=O)(=O)c3ccc(Cl)cc3)CC2)sc1C(=O)c1c(F)cccc1F` [Example P14], in test [1] (0.03 μM compound, Table 3), the “CDK2 % Inhibition at 0.03 μM” value amounted to 60%. For the same compound, in test [2] (setting [4]), the “HCT-116 % Inhibition at 0.1 μM” value came to 23%. Moreover, the “HCT-116 % Inhibition at 0.25 μM” value in test [2] (HCT-116, Table 3) is on record as 25%. Moreover, the “CDK4 % Inhibition at 0.03 μM” value in test [3] (0.03 μM compound, Table 3) came to 67%.
